The target of assay [1] is T1, Acyl-CoA: Cholesterol Acyltransferase (ACAT) (Rattus norvegicus, UniProt Q7TQM4).
T1 construct: Microsomes were obtained by differential centrifugation; from tissue; host or cells: liver microsomes of male Sprague Dawley rats
T1 sequence (Q7TQM4 1-524): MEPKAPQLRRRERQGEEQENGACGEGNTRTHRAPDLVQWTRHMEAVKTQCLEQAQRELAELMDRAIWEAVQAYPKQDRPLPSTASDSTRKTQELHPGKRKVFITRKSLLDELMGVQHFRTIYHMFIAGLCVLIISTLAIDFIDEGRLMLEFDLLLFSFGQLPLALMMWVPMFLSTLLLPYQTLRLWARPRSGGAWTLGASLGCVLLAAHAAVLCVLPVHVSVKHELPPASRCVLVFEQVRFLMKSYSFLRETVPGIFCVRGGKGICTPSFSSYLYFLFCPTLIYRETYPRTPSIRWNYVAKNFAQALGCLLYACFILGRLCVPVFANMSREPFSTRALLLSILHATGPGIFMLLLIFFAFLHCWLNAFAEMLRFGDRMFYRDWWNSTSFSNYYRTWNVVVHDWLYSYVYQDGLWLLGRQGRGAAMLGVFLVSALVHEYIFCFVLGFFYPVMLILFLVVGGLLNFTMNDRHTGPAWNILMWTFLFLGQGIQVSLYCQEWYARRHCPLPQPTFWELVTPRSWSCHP
The assay can be described thus: Inhibition of Acyl-CoA: Cholesterol Acyltransferase (ACAT) in hepatic microsomes (In Vitro Assay). It counts as biochemical, rat (male Sprague Dawley). The settings on record: 75 μM 14C-oleoyl-CoA, pH 7.4, 37° C., 15 min preincubation, 10 min. On the procedure: A. Assay of the Inhibition of Acyl-CoA: Cholesterol Acyltransferase (ACAT) in Hepatic Microsomes (In Vitro Assay)
The ability of the compounds to inhibit ACAT, the enzyme responsible for the intracellular synthesis of cholesteryl esters, was tested as follows. Male Sprague Dawley rats weighing 150-300 g, were fed rat chow ad libitum. The animals were fasted for twenty-four hours prior to being euthanized by CO2. The livers were perfused in situ with 50 ml of cold 0.25 sucrose, excised, and homogenized in three volumes of 0.1M phosphate buffer, pH 7.4, that contained 0.5 mM EDTA (ethylenediamine-tetraacetic acid), 1.0 mM glutathione, 0.25M sucrose and 20 mM leupeptin. Microsomes were obtained by differential centrifugation; the supernatant from an initial spin at 15,000× g for 15 minutes was centrifuged at 105,000× g for 1 hour to pellet the microsomes. The microsomes were suspended in 0.1M phosphate buffer, pH 7.4 with 1 mM GSH and stored at -70° C. Microsomes were used within one month of preparation.
The control assay in a final volume of 200 μl consisted of 200 μg of microsomal protein, 75 μM ^14 C-oleoyl-CoA (10,000 dpm/nmol) in 0.1M phosphate, pH 7.4, that contained 1 mM glutathione. Compounds were added in 5 μl of DMSO (dimethyl sulfoxide) and additional controls were run with DMSO only. All components, except the oleoyl-CoA, were preincubated for 15 min. at 37° C. prior to the initiation of the reaction by the addition of oleoyl-CoA. The assay was terminated after 10 min by the addition of 4 ml of chloroform:methanol (2:1, v/v). 20,000 dpm of ^3 H-cholesteryl oleate and 10 μg of unlabeled cholesteryl oleate and oleic acid were added as an internal standard and carriers, respectively. After allowing 10 min. for lipid extraction, the samples were centrifuged at 1,000× g for 10 min to separate the solvent layers. The chloroform layer containing the neutral lipids was spotted onto a Baker SI250-Pa silica gel TLC plate and the plate developed using a hexane:diethyl ether:acetic acid (170:30:1) v/v/v) mobile phase. The lipids were visualized by their interaction with iodine vapor and the cholesteryl ester spot was scraped into a scintillation vial and counted. The specific activity of ACAT in the control incubation averaged 260 pmol/min/mg microsomal protein. The data obtained are expressed as the concentration at which ACAT activity is inhibited by 50% (IC50).

For assay [2], the system named is ACAT. Put plainly: Systemic availability of ACAT inhibitors (Ex Vivo Assay): ACAT activity in livers from orally dosed rats. Details: species or system rat (male (CD) Sprague Dawley). The note with it: rat, oral gavage 10 mg/kg, days 1-3, livers taken 3 h after last dose. On the procedure:
B. Assay for the Systemic Availability of ACAT Inhibitors (Ex Vivo Assay)
The inhibition of ACAT activity in livers obtained from rats orally dosed with an inhibitor was used as a determination of the compound's systemic availability. The ability of ACAT inhibitors to affect cholesterol esterification in livers obtained from dosed animals was tested as follows. This assay is also referred to herein as the Ex Vivo Assay. Male (CD) Sprague Dawley rats weighing from 190-210 g were fed purina lab chow ad libitum. Rats, three per group, were orally gavaged with 10 mg/kg of active ACAT inhibitor. The compounds were dissolved in ethanol (10% of final volume); a PEG solution (80 propylene glycol:20 polyethylene glycol 400, w:w) was added and the compound was mixed completely prior to dosing. A control group received the dosing vehicle alone. The animals were dosed once on Day 1 (am), twice on Day 2 (am and pm) and once on the morning of Day 3. Three hours after the last dose animals were euthanized using CO2. Livers were perfused with a 0.25M sucrose solution, excised, and frozen. Livers were thawed and resuspended in buffer (2 mL/g, 0.1M Phosphate, pH 7.4, 1.0 mM glutathione, 0.5 mM EDTA, 20 μM leupeptin, 60 μM benzamidine, and 0.25M sucrose). The samples were homogenized and post nuclear microsomes were obtained by centrifugation: 1.000× g for 5 min. and the resulting supernatant, 100,000× g for 1 hr. Microsomes were resuspended in phosphate buffer to approximately 25 mg/mL and frozen at -70° C. until assayed for ACAT activity.
ACAT assays contained in a final volume of 200 μl:100 ug microsomal protein, 75 μM ^14 C-oleoyl-CoA (10,000 dpm/nmol), 0.75 mg bovine serum albumin, 0.1M phosphate buffer, pH 7.4, and 1 mM glutathione. All components, except the oleoyl-CoA, were preincubated for 15 min at 37° C. prior to the initiation of the reaction by the addition of oleoyl-CoA. The assay was terminated after 10 min and ACAT activity determined as described in section A above. The average specific activity of ACAT in the vehicle control group was 661 +/- 64 pmol/min/mg (SEM). The data (% inhibition) are expressed as 100 minus the % ACAT activity in livers from dosed animals versus those from a vehicle control group.

36 compounds from US5491152A, “Derivatives of cyclic ethers and sulfides for the treatment of atherosclerosis” (The Du Pont Merck Pharmaceutical Company, priority 1994, dated 1996) can be followed below.

pIC50: −log10 of the molar value. A value given as a limit tells only on which side of the number the result lay.

Usually pIC50 stands for −log10 of the IC50, conventionally taken in molar units. Low readings indicate a large IC50, high ones a small IC50. As to `CCCCO[C@H]1[C@@H](OC)O[C@H](C(=O)Nc2c(SC)cc(C)nc2SC)C(OCc2ccccc2)[C@@H]1OCCCC` (stereo in doubt) [Example 426, (2S,3R,4S,5R,6S)-N-[2,4-bis(methylthio)-6-methylpyridin-3-yl]-3-benzyloxy-4,5-dibutoxy-6-methoxy-3,4,5,6-tetrahydro-2H-pyran-2-carboxamide], in assay [1], the pIC50 is 4.30 to 4.96.
As to `CCCCCCC1=C(CCCCCC)CC(C(=O)Nc2c(C(C)C)cccc2C(C)C)SC1` (stereo not shown) [Example 1], the pIC50 in assay [1] is greater than 5.70.
On the same count and under the same terms, the result for `CCCCCCC1=C(CCCCCC)CC(C(=O)Nc2c(C)cccc2C)SC1` (stereo not shown) [Example 2] reads greater than 5.70; that for `CCCCCCC1=C(CCCCCC)CC(C(=O)Nc2c(Cl)cccc2Cl)SC1` (stereo not shown) [Example 3], 5.00 to 5.52.
The same measure, in the same setting: under `CC(C)(C)C1C=CCC(C(=O)Nc2ccc(F)cc2F)S1` (stereo not shown) [Example 17] stands 4.30 to 4.96; under `CCCCCC1=C(CCCCC)CC(C(=O)Nc2c(C(C)C)cccc2C(C)C)SC1` (stereo not shown) [Example 27, N-(2,6-diisopropylphenyl)-3,6-dihydro-4,5-dipentyl-2H-thiopyran-2-carboxamide], greater than 5.70.
`CCCCCC1=C(CCCCC)CC(C(=O)Nc2c(C)cccc2C)SC1` (stereo not shown) [Example 28] showed a pIC50 in assay [1] greater than 5.70.
In assay [1], `CCCCCC1=C(CCCCC)CC(C(=O)Nc2c(Cl)cccc2Cl)SC1` (stereo not shown) [Example 29] showed a pIC50 greater than 5.70.
The same measure, in the same setting: the result for `CCCCCC1=C(CCCCC)CC(C(=O)Nc2ccc(F)cc2F)SC1` (stereo not shown) [Example 30] reads 4.30 to 4.96.
Regarding `CCCCCC1=C(CCCCC)CC(C(=O)Nc2c(SC)cc(C)nc2SC)SC1` (stereo not shown) [Example 31], the pIC50 in assay [1] was greater than 5.70. Besides, the “Inhibition of ACAT, Ex Vivo Assay (% inhibition)” value (“Inhibition … (% inhibition)” below) in assay [2] (given as number) was less than 10%.
Consider `CCCCCC1=C(CCCCC)CC(C(=O)Nc2cncnc2SC)SC1` (stereo not shown) [Example 32], for which the pIC50 in assay [1] was 5.00 to 5.52.
In assay [1], `CCCCCC1=C(CCCCC)CC(C(=O)Nc2cccnc2SC)SC1` (stereo not shown) [Example 33] showed a negative logarithm of the IC50 (pIC50) of 4.30 to 4.96.
For `CCCCCC1=C(CCCCC)CC(C(=O)Nc2ccc(SC)nc2)SC1` (stereo not shown) [Example 34], the pIC50 in assay [1] is 4.30 to 4.96.
On to `CCCCCCCCC1=C(CCCCCCCC)CC(C(=O)Nc2c(SC)cc(C)nc2SC)SC1` (stereo not shown) [Example 35], for which the pIC50 in assay [1] is greater than 5.70.
Still for that read-out and setting: the result for `CCCCCC1=C(CCCCC)CC(C(=O)Nc2c(C)nn(C)c2SC)SC1` (stereo not shown) [Example 39] reads greater than 5.70; that for `CCCCC1=C(CCCC)CC(C(=O)Nc2c(C(C)C)cccc2C(C)C)SC1` (stereo not shown) [Example 40], greater than 5.70; that for `CCCCC1=C(CCCC)CC(C(=O)Nc2c(C)cccc2C)SC1` (stereo not shown) [Example 41], greater than 5.70.
As to `CCCCC1=C(CCCC)CC(C(=O)Nc2c(Cl)cccc2Cl)SC1` (stereo not shown) [Example 42], the pIC50 in assay [1] was greater than 5.70. Also, in assay [2] (class symbols), the “Inhibition … (% inhibition)” value is on record as “+ (10-49%)”.
With `CC1=C(C)CC(C(=O)Nc2c(C(C)C)cccc2C(C)C)SC1` (stereo not shown) [Example 53], the pIC50 in assay [1] was 5.00 to 5.52.
The compound `CSc1cc(C)nc(SC)c1NC(=O)C1CC(C)=C(C)CS1` (stereo not shown) [Example 57] gave a pIC50 in assay [1] greater than 5.70.
Regarding `CCCCCC1C=CC(CCCCC)C(C(=O)Nc2c(C(C)C)cccc2C(C)C)S1` (stereo not shown) [Example 66, N-(2,6-diisopropylphenyl)-3,6-dihydro-3,6-dipentyl-2H-thiopyran-2-carboxamide], the pIC50 in assay [1] is greater than 5.70. In addition, in assay [2] (class symbols), the “Inhibition … (% inhibition)” value is on record as “++ (>50%)”.
Compound `CCCCCC1C=CC(CCCCC)C(C(=O)Nc2c(C)cccc2C)S1` (stereo not shown) [Example 67] had a pIC50 in assay [1] greater than 5.70.
The same measure, in the same setting: the result for `CCCCCC1C=CC(CCCCC)C(C(=O)Nc2c(Cl)cccc2Cl)S1` (stereo not shown) [Example 68] reads greater than 5.70.
For `CCCCCC1C=CC(CCCCC)C(C(=O)Nc2ccc(F)cc2F)S1` (stereo not shown) [Example 69], the pIC50 in assay [1] is 5.00 to 5.52.
For `CCCCCC1C=CC(CCCCC)C(C(=O)Nc2c(SC)cc(C)nc2SC)S1` (stereo not shown) [Example 70, N-[2,4-bis(methylthio)-6-methylpyridin-3-yl]-3,6-dipentyl-2,3-dihydro-2H-thiopyran-2-carboxamide], the pIC50 in assay [1] was greater than 5.70. Further, in assay [2] (class symbols), the “Inhibition … (% inhibition)” value is “++ (>50%)”.
In turn, `CCCCCC1=CC(CCCCC)C(C(=O)Nc2c(C(C)C)cccc2C(C)C)SC1` (stereo not shown) [Example 79] showed a pIC50 in assay [1] greater than 5.70.
In turn, `CC1=C(C)CC(C(=O)Nc2c(C(C)C)cccc2C(C)C)OC1` (stereo not shown) [Example 104] gave a pIC50 in assay [1] of 4.30 to 4.96.
The same measure, in the same setting: the result for `CSc1cc(C)nc(SC)c1NC(=O)C1CC(C)=C(C)CO1` (stereo not shown) [Example 106, N-[2,4-bis(methylthio)-6-methyl-3-pyridyl]-2,3-dihydro-4,5-dimethyl-2H-pyran-2-carboxamide] reads 4.30 to 4.96.
Same read-out and setting: the result for `CCCCCC1C=CC(CCCCC)[S+]([O-])C1C(=O)Nc1c(SC)cc(C)nc1SC` (stereo not shown) [Example 120] reads greater than 5.70; that for `CSc1cc(C)nc(SC)c1NC(=O)C1SC(c2ccccc2)C=CC1c1ccccc1` (stereo not shown) [Example 132], greater than 5.70.
On the same count and under the same terms, the result for `CSc1cc(C)nc(SC)c1NC(=O)C1SCC=CC1OC(C)=O` (stereo not shown) [Example 168] reads 5.00 to 5.52; that for `CSc1cc(C)nc(SC)c1NC(=O)C1SC(CCCCl)C=CC1CCCCl` (stereo not shown) [Example 180], greater than 5.70.
The compound `CSc1cc(C)nc(SC)c1NC(=O)C1SC(CCCSC2CCCCC2)C=CC1CCCSC1CCCCC1` (stereo not shown) [Example 184] had a pIC50 in assay [1] greater than 5.70.
On the same count and under the same terms, the result for `CCCCCCSC1CC(=O)CC(C(=O)Nc2c(SC)cc(C)nc2SC)S1` (stereo not shown) [Example 402, N-[2,4-bis(methylthio)-6-methylpyridin-3-yl]-6-hexylthio-2,3,5,6-tetrahydro-4H-thiopyran-4-one-2-carboxamide] reads greater than 5.70; that for `CCCCCOc1cc2c(cc1OC)CC(CCCC)CSC2C(=O)Nc1c(SC)cc(C)nc1SC` (stereo not shown) [Example 907, N-[2,4-bis(methylthio)-6-methylpyridin-3-yl]-4-butyl-7-methoxy-8-pentoxy-1,3,4,5-tetrahydro-2-benzothiepin-1-carboxamide], greater than 5.70.
The same measure, in the same setting: under “N-[2,6-bis(1-methylethyl)phenyl]-6,7-dimethoxy-1,2,3,4-tetrahydro-2-thianaphthalene-1-carboxamide [Example 613]” stands 4.30 to 4.96.
